This assay has as its target T1, human glucagon receptor (Homo sapiens, UniProt P47871).
T1 construct: expressed in transfected cells; host or cells: BHK (baby hamster kidney) cells
The assay is described as follows: Glucagon Binding Assay (III). The settings on record: BHK cell membranes, WGA SPA beads, 125I-glucagon. On the procedure:
BHK (baby hamster kidney cell line) cells were transfected with the human glucagon receptor and a membrane preparation of the cells was prepared.
All steps in the membrane preparation were kept on ice or performed at 4° C. BHK cells were harvested and centrifuged. […] The pellet was resuspended in homogenisation buffer, homogenised 2×10 sec (Polytron) and additional homogenisation buffer was added. […] (Polytron).
The glucagon binding assay was carried out in opti plates (Polystyrene Microplates, Packard). […] Finally 50 μL WGA beads containing 1 mg beads were transferred to the well. The assay was incubated for 4 hours on a shaker and then settled for 8-48 hours. The opti plates were counted in a Topcounter. Non-specific binding was determined with 500 nM of glucagon.

[1] abbreviates: read-out: Glu Bd Assay (III) IC50.

A word on the IC50: it is the concentration that inhibits the measured activity by half.

The structures appear in SMILES notation. Where two headings read alike, the source gives them in different places.

T1 sequence (P47871 26-477): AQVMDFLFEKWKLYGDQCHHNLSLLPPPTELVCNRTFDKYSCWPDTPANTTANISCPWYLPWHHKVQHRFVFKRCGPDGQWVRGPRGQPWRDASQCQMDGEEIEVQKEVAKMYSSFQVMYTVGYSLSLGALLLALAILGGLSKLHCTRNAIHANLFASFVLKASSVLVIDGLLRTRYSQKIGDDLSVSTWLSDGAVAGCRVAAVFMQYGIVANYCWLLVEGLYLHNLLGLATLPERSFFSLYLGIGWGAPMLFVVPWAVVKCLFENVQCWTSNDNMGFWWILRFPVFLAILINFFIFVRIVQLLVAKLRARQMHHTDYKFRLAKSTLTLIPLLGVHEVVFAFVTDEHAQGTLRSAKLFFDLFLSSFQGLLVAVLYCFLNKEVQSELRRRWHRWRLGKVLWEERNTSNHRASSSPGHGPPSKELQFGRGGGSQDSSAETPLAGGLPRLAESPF

Where the note is “Glu Bd Assay (III) IC50 (nM)”, `CC(C)(C)[C@H]1CC[C@H](N(Cc2ccc(C(=O)N3CCCC(C(=O)O)C3)cc2)C(=O)Nc2ccc(OC(F)(F)F)cc2)CC1` (relative stereo) [Example 94, 1-{4-[1-(trans-4-tert-Butylcyclohexyl)-3-(4-trifluoromethoxyphenyl)ureidomethyl]benzoyl}piperidine-3-carboxylic acid] came in with an IC50 of 1000 nM.

Turning to `CC(NC(=O)N(Cc1ccc(C(=O)Nc2nn[nH]n2)cc1)c1ccc(C2CCCCC2)cc1)c1ccc(Cl)cc1` (single isomer, unassigned) [Example 337, 4-[3-[1-(4-Chlorophenyl)ethyl]-1-(4-Cyclohexylphenyl)ureidomethyl]-N-(2H-tetrazol-5-yl)benzamide], the IC50 under setting [1] amounted to 22 nM.

Take `CC(NC(=O)N(Cc1ccc(C(=O)Nc2nn[nH]n2)cc1)c1ccc(C2CCCCC2)cc1)c1ccc(Cl)cc1` (single isomer, unassigned) [Example 338, 4-[3-[1-(4-Chlorophenyl)ethyl]-1-(4-cyclohexylphenyl)ureidomethyl]-N-(2H-tetrazol-5-yl)benzamide]: the IC50 under setting [1] is 169 nM.

For the compound `CCCCC(CC)CN(Cc1ccc(C(=O)NCCC(=O)O)cc1)C(=O)Nc1ccc(Oc2ccccc2)cc1` (centres unmarked) [Example 14, 3-{4-[1-(2-Ethylhexyl)-3-(4-phenoxyphenyl)ureidomethyl]benzoylamino}propionic acid], the IC50 under setting [1] is 184 nM.

As for `CC1CCC(N(Cc2ccc(C(=O)NCCC(=O)O)cc2)C(=O)Nc2ccc(OC(F)(F)F)cc2)CC1` (centres unmarked) [Example 15, 3-{4-[1-(4-Methylcyclohexyl)-3-(4-trifluoromethoxyphenyl)ureidomethyl]benzoylamino}propionic acid], the IC50 under setting [1] worked out at 826 nM.

In the case of `CC(C)(C)C1CCC(N(Cc2ccc(C(=O)NCCC(=O)O)cc2)C(=O)Nc2ccc(Cl)c(Cl)c2)CC1` (centres unmarked) [Example 16, 3-{4-[1-(4-tert-Butylcyclohexyl)-3-(3,4-dichlorophenyl)ureidomethyl]benzoylamino}propionic acid], the IC50 under setting [1] worked out at 39 nM.

Regarding `CC(C)(C)C1CCC(N(Cc2ccc(C(=O)NCCC(=O)O)cc2)C(=O)Nc2ccc(Oc3ccccc3)cc2)CC1` (centres unmarked) [Example 17, 3-{4-[1-(4-tert-Butylcyclohexyl)-3-(4-phenoxyphenyl)ureidomethyl]benzoylamino}propionic acid], the IC50 under setting [1] was 27 nM.

With `O=C(O)CCNC(=O)c1ccc(CN(CCC(c2ccccc2)c2ccccc2)C(=O)Nc2ccc(OC(F)(F)F)cc2)cc1` [Example 18, 3-{4-[1-(3,3-Diphenylpropyl)-3-(4-trifluoromethoxyphenyl)ureidomethyl]benzoylamino}propionic acid], under setting [1], the IC50 stood at 126 nM.

Consider `O=C(O)CCNC(=O)c1ccc(CN(CCc2ccc(Cl)c(Cl)c2)C(=O)Nc2ccc(OC(F)(F)F)cc2)cc1` [Example 19, 3-{4-[1-[2-(3,4-Dichlorophenyl)ethyl]-3-(4-trifluoromethoxyphenyl)ureidomethyl]benzoylamino}propionic acid], for which, under setting [1], the IC50 worked out at 201 nM.

Take `CCCCC(CC)CN(Cc1ccc(C(=O)NCCC(=O)O)cc1)C(=O)Nc1cccc(C#N)c1` (centres unmarked) [Example 20, 3-{4-[3-(3-Cyanophenyl)-1-(2-ethylhexyl)ureidomethyl]benzoylamino}propionic acid]: the IC50 under setting [1] came to 2370 nM.

On to `CCCCC(CC)CN(Cc1ccc(C(=O)NCCC(=O)O)cc1)C(=O)Nc1cccc(C(F)(F)F)c1` (centres unmarked) [Example 21, 3-{4-[1-(2-Ethylhexyl)-3-(3-trifluoromethylphenyl)ureidomethyl]benzoylamino}propionic acid], for which the IC50 under setting [1] was 1500 nM.

With `CC1CCC(N(Cc2ccc(C(=O)NCCC(=O)O)cc2)C(=O)Nc2ccc(Oc3ccccc3)cc2)CC1` (centres unmarked) [Example 22, 3-{4-[1-(4-Methylcyclohexyl)-3-(4-phenoxyphenyl)ureidomethyl]benzoylamino}propionic acid], the IC50 under setting [1] was found to be 1100 nM.

Consider `CC(C)(C)C1CCC(N(Cc2ccc(C(=O)NCCC(=O)O)cc2)C(=O)NCCc2cccs2)CC1` (centres unmarked) [Example 23, 3-{4-[1-(4-tert-Butylcyclohexyl)-3-(2-thiophen-2-ylethyl)ureidomethyl]benzoylamino}propionic acid], for which the IC50 under setting [1] came out at 1800 nM.

On to `COc1cc(OC)c(NC(=O)N(Cc2ccc(C(=O)NCCC(=O)O)cc2)C2CCC(C(C)(C)C)CC2)cc1Cl` (centres unmarked) [Example 24, 3-{4-[1-(4-tert-Butylcyclohexyl)-3-(5-chloro-2,4-dimethoxyphenyl)ureidomethyl]benzoylamino}propionic acid], for which the IC50 under setting [1] is 1700 nM.

On to `CC(C)(C)C1CCC(N(Cc2ccc(C(=O)NCCC(=O)O)cc2)C(=O)Nc2ccccc2C(F)(F)F)CC1` (centres unmarked) [Example 25, 3-{4-[1-(4-tert-Butylcyclohexyl)-3-(2-trifluoromethylphenyl)ureidomethyl]benzoylamino}propionic acid], for which the IC50 under setting [1] stood at 935 nM.

`CSc1cccc(NC(=O)N(Cc2ccc(C(=O)NCCC(=O)O)cc2)C2CCC(C(C)(C)C)CC2)c1` (centres unmarked) [Example 26, 3-{4-[1-(4-tert-Butylcyclohexyl)-3-(3-methylsulfanylphenyl)ureidomethyl]benzoylamino}propionic acid]: under setting [1], the IC50 amounted to 385 nM.

For `CC(C)(C)C1CCC(N(Cc2ccc(C(=O)NCCC(=O)O)cc2)C(=O)NCCc2ccccc2)CC1` (centres unmarked) [Example 27, 3-{4-[1-(4-tert-Butylcyclohexyl)-3-phenethylureidomethyl]benzoylamino}propionic acid], the IC50 under setting [1] came out at 2000 nM.

`CC(C)(C)C1CCC(N(Cc2ccc(C(=O)NCCC(=O)O)cc2)C(=O)Nc2ccccc2-c2ccccc2)CC1` (centres unmarked) [Example 28, 3-{4-[3-Biphenyl-2-yl-1-(4-tert-butylcyclohexyl)ureidomethyl]benzoylamino}propionic acid]: the IC50 under setting [1] came to 266 nM.

Consider `CC(C)c1ccc(NC(=O)N(Cc2ccc(C(=O)NCCC(=O)O)cc2)C2CCC(C(C)(C)C)CC2)cc1` (centres unmarked) [Example 29, 3-{4-[1-(4-tert-Butylcyclohexyl)-3-(4-isopropylphenyl)ureidomethyl]benzoyl}aminopropionic acid], for which the IC50 under setting [1] stood at 149 nM.

As for `CSc1ccc(NC(=O)N(Cc2ccc(C(=O)NCCC(=O)O)cc2)C2CCC(C(C)(C)C)CC2)cc1` (centres unmarked) [Example 30, 3-{4-[1-(4-tert-Butylcyclohexyl)-3-(4-methylsulfanylphenyl)ureidomethyl]benzoyl}aminopropionic acid], under setting [1], the IC50 was 139 nM.

As to `COc1ccc(NC(=O)N(Cc2ccc(C(=O)NCCC(=O)O)cc2)C2CCC(C(C)(C)C)CC2)cc1` (centres unmarked) [Example 31, 3-{4-[1-(4-tert-Butylcyclohexyl)-3-(4-methoxyphenyl)ureidomethyl]benzoyl}aminopropionic acid], the IC50 under setting [1] is 2200 nM.

Take `CC(=O)c1ccc(NC(=O)N(Cc2ccc(C(=O)NCCC(=O)O)cc2)C2CCC(C(C)(C)C)CC2)cc1` (centres unmarked) [Example 32, 3-{4-[1-(4-tert-Butylcyclohexyl)-3-(4-acetylphenyl)ureidomethyl]benzoyl}aminopropionic acid]: the IC50 under setting [1] worked out at 1680 nM.

`CCCCOC(=O)c1ccc(NC(=O)N(Cc2ccc(C(=O)NCCC(=O)O)cc2)C2CCC(C(C)(C)C)CC2)cc1` (centres unmarked) [Example 33, 4-{3-(4-tert-Butylcyclohexyl)-3-[4-(2-carboxyethylcarbamoyl)benzyl]ureido}benzoic acid butyl ester]: the IC50 under setting [1] stood at 104 nM.

Take `CC(C)(C)C1CCC(N(Cc2ccc(C(=O)NCCC(=O)O)cc2)C(=O)Nc2ccc(Cl)cc2)CC1` (centres unmarked) [Example 34, 3-{4-[1-(4-tert-Butylcyclohexyl)-3-(4-chlorophenyl)ureidomethyl]benzoyl}aminopropionic acid]: the IC50 under setting [1] amounted to 462 nM.

Take `CC(C)(C)[C@H]1CC[C@H](N(Cc2ccc(C(=O)NCCC(=O)O)cc2)C(=O)Nc2ccc(Cl)cc2Cl)CC1` [Example 35, 3-{4-[1-(4-trans-tert-Butylcyclohexyl)-3-(2,4-dichlorophenyl)ureidomethyl]benzoylamino}propionic acid]: the IC50 under setting [1] stood at 352 nM.

With `CCCCC(CC)CN(Cc1ccc(C(=O)NCCC(=O)O)cc1)C(=O)Nc1ccc(C(F)(F)F)cc1` (centres unmarked) [Example 36, 3-{4-[1-(2-Ethylhexyl)-3-(4-trifluoromethylphenyl)ureidomethyl]benzoylamino}propionic acid], the IC50 under setting [1] was determined as 151 nM.

Take `CCCCOC(=O)c1ccc(NC(=O)N(Cc2ccc(C(=O)NCCC(=O)O)cc2)CC(CC)CCCC)cc1` (centres unmarked) [Example 37, 4-[3-[4-(2-Carboxyethylcarbamoyl)benzyl]-3-(2-ethylhexyl)ureido]benzoic acid butyl ester]: under setting [1], the IC50 was found to be 145 nM.

Turning to `CCCCC(CC)CN(Cc1ccc(C(=O)NCCC(=O)O)cc1)C(=O)Nc1ccc(Cl)cc1` (centres unmarked) [Example 38, 3-{4-[3-(4-Chlorophenyl)-1-(2-ethylhexyl)ureidomethyl]benzoylamino}propionic acid], the IC50 under setting [1] is 928 nM.

In the case of `CCCCC(CC)CN(Cc1ccc(C(=O)NCCC(=O)O)cc1)C(=O)Nc1ccc(C)cc1` (centres unmarked) [Example 39, 3-{4-[1-(2-Ethylhexyl)-3-p-tolylureidomethyl]benzoylamino}propionic acid], under setting [1], the IC50 was 227 nM.

`CCCCC(CC)CN(Cc1ccc(C(=O)NCCC(=O)O)cc1)C(=O)Nc1cccc(C(=O)OCC)c1` (centres unmarked) [Example 40, 3-[3-[4-(2-Carboxyethylcarbamoyl)benzyl]-3-(2-ethylhexyl)ureido]benzoic acid ethyl ester]: under setting [1], the IC50 came out at 821 nM.

In the case of `CCCCC(CC)CN(Cc1ccc(C(=O)NCCC(=O)O)cc1)C(=O)Nc1ccc(SC)cc1` (centres unmarked) [Example 41, 3-{4-[1-(2-Ethylhexyl)-3-(4-methylsulfanylphenyl)ureidomethyl]benzoylamino}propionic acid], the IC50 under setting [1] came out at 299 nM.

In the case of `CCCCC(CC)CN(Cc1ccc(C(=O)NCCC(=O)O)cc1)C(=O)Nc1ccc(CC)cc1` (centres unmarked) [Example 42, 3-{4-[1-(2-Ethylhexyl)-3-(4-ethylphenyl)ureidomethyl]benzoylamino}propionic acid], the IC50 under setting [1] was 117 nM.

These data come from US6875760B2 (Novo Nordisk A/S, priority 1999, dated 2005).
